Experimental data taken from US5519028A, “Antiviral preparations” (priority 1992, dated 1996).

Tested on: HIV
Conditions: human, in vivo

SMILES: CCc1ccc2c3[nH]c4ccccc4c3cc[n+]2c1 [flavopereirine]
- CD2: Increase
- CD4: Increase
- CD4+ cells: significant increase
- CD8: Increase
- CD19: Increase
- CD19+ cells: significant increase
- Karnofsky's index: ~100%
- blood or renal toxicity: Neither blood nor renal toxicity was observed
- degradation in CDC classification: No degradation in the CDC classification
- effect on viral infectional capacity of HIV: significant inhibitory effect on the viral infectional capacity of HIV
- hemoglobin: Increase
- infections: no infections were noticed
- microglobulin beta-2: Increase
- modification in ALAT or ASAT: nor was there any significant modification in ALAT or ASAT
- patients with negative decline in CD4+ reversed: 18 out of 19
- physical and professional activity: remained completely normal
- red cells: Increase
- side effects: Side effects were few, occurring only in the first three months
- total lymphocyte mass: Increase
- toxic or side effects (po): devoid of toxic or side effects
